In patent US20100190794A1, “Herbicidally Active Composition” (BASF SE, priority 2007, published 2010):

Key:
ECHCG = experiment: greenhouse test, pre-emergence treatment; assay type: in vivo, Echinochloa crus-galli; details: Use Example 2
Source text: (§1) The culture containers used were plastic pots containing loamy sand with approximately 3.0% of humus as substrate. The seeds of the test plants were sown separately for each species.
(§2) For the pre-emergence treatment, the active compounds, suspended or emulsified in water, were applied directly after sowing by means of finely distributing nozzles. The containers were irrigated gently to promote germination and growth and subsequently covered with transparent plastic hoods until the plants had rooted. This cover caused uniform germination of the test plants unless this was adversely affected by the active compounds.
(§3) Depending on the species, the plants were kept at 10-25° C. and 20-35° C., respectively. The test period extended over 2 to 4 weeks. During this time, the plants were tended and their response to the individual treatments was evaluated.
(§4) Evaluation was carried out using a scale from 0 to 100. 100 means no emergence of the plants, or complete destruction of at least the above-ground parts, and 0 means no damage or normal course of growth. Good herbicidal activity is given at values of at least 70, and very good herbicidal activity is given at values of at least 85.
(§5) The respective stated components A and B, and if appropriate, C were formulated as a 5% by weight or 10% by weight strength emulsion concentrate or a commercially available formulation of component B was used and, with addition of the amount of solvent system, introduced into the spray liquor used for applying the active compound. In the examples, the solvent used was water.
(§6) The test period extended over 20 or 21 days. During this time, the plants were tended, and their reactions to the treatment with active compound was monitored.
(§7) What was evaluated was the damage by the chemical compositions using a scale of from 0 to 100%, in comparison to the untreated control plants. 0 means no damage, and 100 means complete destruction of the plants.
(§8) In the examples below, using the method of S. R. Colby (1967) “Calculating synergistic and antagonistic responses of herbicide combinations”, Weeds 15, p. 22 ff., the value E, which is expected if the activity of the individual active compounds is only additive, was calculated.
(§9) where X=percent activity using active compound A at an application rate a; Y=percent activity using active compound B at an application rate b; E=expected activity (in %) by A+B at application rates a+b.
(§10) If the value found in experiments is higher than the value E calculated according to Colby, a synergistic effect is present.

SETLU = experiment: greenhouse test, pre-emergence treatment; assay type: in vivo, Setaria glauca; details: for Herbicidal action in % after 21 days against SETLU: Use Example 9
Source text: as §1, §2, §3, §4, §5, §6, §7, §8, §9, §10

SETFA = experiment: greenhouse test, pre-emergence treatment; assay type: in vivo, Setaria faberi
Source text: as §1, §2, §3, §4, §5, §6, §7, §8, §9, §10

PHACA = experiment: greenhouse test, pre-emergence treatment; assay type: in vivo, Phalaris canariensis
Source text: as §1, §2, §3, §4, §5, §6, §7, §8, §9, §10

STEME = experiment: greenhouse test, pre-emergence treatment; assay type: in vivo, Stellaria media; details: Use Example 2
Source text: as §1, §2, §3, §4, §5, §6, §7, §8, §9, §10

BRAPL = experiment: greenhouse test, pre-emergence treatment; assay type: in vivo, Brachiaria plantaginea
Source text: as §1, §2, §3, §4, §5, §6, §7, §8, §9, §10

LAMPU = experiment: greenhouse test, pre-emergence treatment; assay type: in vivo, Lamium purpureum; details: 125 g/ha a.s., Use Example 11
Source text: as §1, §2, §3, §4, §5, §6, §7, §8, §9, §10

POAAN = experiment: greenhouse test, pre-emergence treatment; assay type: in vivo, Poa annua
Source text: as §1, §2, §3, §4, §5, §6, §7, §8, §9, §10

DIGSA = experiment: greenhouse test, post-emergence treatment; assay type: in vivo, Digitaria sanguinalis; details: Use Example 18
Description: as §1
(§11) For the post-emergence treatment, the test plants were grown to a plant height of from 3 to 15 cm, depending on the plant habit, and only then treated with the active compounds which had been suspended or emulsified in water. To this end, the test plants were either sown directly and grown in the same containers, or they were first grown separately as seedlings and transplanted into the test containers a few days prior to treatment.
as §3
as §4, with “85. […]” for “85.”
as §6
(§12) What was evaluated was the damage by the chemical compositions using a scale of from 0 to 100%, in comparison to the untreated control plants. […]
(§13) In the examples below, using the method of S. R. Colby (1967) “Calculating synergistic and antagonistic responses of herbicide combinations”, Weeds 15, p. 22 ff., the value E, which is expected if the activity of the individual active compounds is only additive, was calculated. […]
as §10

AVEFA = experiment: greenhouse test, pre-emergence treatment; assay type: in vivo, Avena fatua; details: Use Example 6
Source text: as §1, §2, §3
as §4, with “85. […]” for “85.”
as §6, §12, §13, §10

LOLMU = experiment: greenhouse test, post-emergence treatment; assay type: in vivo, Lolium multiflorum; details: Use Example 17
Description: as §1, §11, §3, §4, §5, §6, §7, §8, §9, §10

With `CN1C(=O)C(C)(Cc2ccccc2)N(C)C(=O)C1=Cc1ccccc1C#N` (stereo not drawn) [Example 20, 2-[5-Benzyl-1,4,5-trimethyl-3,6-dioxopiperazin-2-ylidenemethyl]benzo-nitrile] as the molecule, how does the “Herbicidal action in % after 20 days against ECHCG” value (ECHCG; 62.5 g/ha a.s.) read?
The value was 70%.

And the “Herbicidal action in % after 20 days against ECHCG” value (ECHCG; 125 g/ha a.s.)?
Its value is 95%.

And the “Herbicidal action in % after 20 days against ECHCG” value (ECHCG; 250 g/ha a.s.)?
Its value is 100%.

What about the “Herbicidal action in % after 21 days against SETLU” value (SETLU; 125 g/ha a.s.) of the same molecule?
Its value is 90%.

What about the “Herbicidal action in % after 20 days against SETLU” value (SETLU; 125 g/ha a.s., Use Example 14) of the same molecule?
The value was 90%.

What about the “Herbicidal action in % after 21 days against SETLU” value (SETLU; 250 g/ha a.s.) of the same molecule?
Its value is 100%.

What about the “Herbicidal action in % after 20 days against SETLU” value (SETLU; 250 g/ha a.s., Use Example 16) of the same molecule?
The value was 98%.

What about the “Herbicidal action in % after 20 days against SETFA” value (SETFA; 125 g/ha a.s., Use Example 12) of the same molecule?
The value was 45%.

What about the “Herbicidal action in % after 20 days against SETFA” value (SETFA; 125 g/ha a.s., Use Example 14) of the same molecule?
The value was 95%.

What about the “Herbicidal action in % after 20 days against SETFA” value (SETFA; 250 g/ha a.s., Use Example 12) of the same molecule?
The value was 80%.

And the “Herbicidal action in % after 20 days against PHACA” value (PHACA; 250 g/ha a.s., Use Example 4)?
The value was 80%.

What about the “Herbicidal action in % after 20 days against PHACA” value (PHACA; 500 g/ha a.s., Use Example 1) of the same molecule?
Its value is 80%.

And the “Herbicidal action in % after 20 days against STEME” value (STEME; 62.5 g/ha a.s.)?
The value was 0%.

What about the “Herbicidal action in % after 20 days against STEME” value (STEME; 125 g/ha a.s.) of the same molecule?
The value was 20%.

What about the “Herbicidal action in % after 20 days against STEME” value (STEME; 250 g/ha a.s.) of the same molecule?
Its value is 50%.

And the “Herbicidal action in % after 21 days against BRAPL” value (BRAPL; 31.25 g/ha a.s., Use Example 8)?
The value was 20%.

What about the “Herbicidal action in % after 20 days against BRAPL” value (BRAPL; 125 g/ha a.s., Use Example 5) of the same molecule?
The value was 70%.

And the “Herbicidal action in % after 21 days against BRAPL” value (BRAPL; 125 g/ha a.s., Use Example 9)?
The value was 80%.

What about the “Herbicidal action in % after 20 days against BRAPL” value (BRAPL; 125 g/ha a.s., Use Example 12) of the same molecule?
Its value is 55%.

What about the “Herbicidal action in % after 20 days against BRAPL” value (BRAPL; 250 g/ha a.s., Use Example 5) of the same molecule?
Its value is 85%.

What about the “Herbicidal action in % after 21 days against BRAPL” value (BRAPL; 250 g/ha a.s., Use Example 9) of the same molecule?
The value was 95%.

What about the “Herbicidal action in % after 20 days against BRAPL” value (BRAPL; 250 g/ha a.s., Use Example 12) of the same molecule?
The value was 55%.

And the “Herbicidal action in % after 20 days against BRAPL” value (BRAPL; 250 g/ha a.s., Use Example 16)?
Its value is 85%.

And the “Herbicidal action in % after 21 days against LAMPU” value (LAMPU)?
Its value is 75%.

And the “Herbicidal action in % after 20 days against POAAN” value (POAAN; 125 g/ha a.s., Use Example 7)?
Its value is 60%.

What about the “Herbicidal action in % after 20 days against POAAN” value (POAAN; 125 g/ha a.s., Use Example 15) of the same molecule?
The value was 60%.

And the “Herbicidal action in % after 20 days against POAAN” value (POAAN; 250 g/ha a.s., Use Example 6)?
The value was 85%.

And the “Herbicidal action in % after 20 days against POAAN” value (POAAN; 250 g/ha a.s., Use Example 7)?
The value was 85%.

What about the “Herbicidal action in % after 20 days against POAAN” value (POAAN; 250 g/ha a.s., Use Example 15) of the same molecule?
The value was 85%.

What about the “Herbicidal action in % after 20 days against POAAN” value (POAAN; 500 g/ha a.s., Use Example 6) of the same molecule?
Its value is 95%.

And the “Herbicidal action in % after 20 days against DIGSA” value (DIGSA; 62.5 g/ha a.s.)?
The value was 45%.

What about the “Herbicidal action in % after 20 days against DIGSA” value (DIGSA; 125 g/ha a.s.) of the same molecule?
Its value is 70%.

What about the “Herbicidal action in % after 20 days against AVEFA” value (AVEFA; 250 g/ha a.s.) of the same molecule?
Its value is 20%.

And the “Herbicidal action in % after 20 days against AVEFA” value (AVEFA; 500 g/ha a.s.)?
The value was 40%.

And the “Herbicidal action in % after 20 days against LOLMU” value (LOLMU; 125 g/ha a.s.)?
Its value is 15%.

What about the “Herbicidal action in % after 20 days against LOLMU” value (LOLMU; 250 g/ha a.s.) of the same molecule?
The value was 35%.
